Measured values as given in patent publication US11370761B2, “Voltage-dependent T-type calcium channel inhibitor” (Nippon Chemiphar Co., Ltd., priority 2017, dated 2022).

Key:
human Cav3.2 channel [1] = molecular target: T1, human Cav3.2 channel (Homo sapiens, UniProt O95180); assay: Electrophysiological evaluation, automated whole-cell patch clamp of Cav3.2 channel current (Pharmacological Test 2); assay type: cell-based; conditions: for inhibition at 0.3 µM: 0.3 μM test compound, holding potential −80 mV, depolarization to −20 mV, read-out: Cav3.2 channel current inhibition rate in test compound of 0.3 μM (holding potential of −80 mV) (%)
T1 construct: expressed in transfected cells
T1 sequence (O95180 whole entry): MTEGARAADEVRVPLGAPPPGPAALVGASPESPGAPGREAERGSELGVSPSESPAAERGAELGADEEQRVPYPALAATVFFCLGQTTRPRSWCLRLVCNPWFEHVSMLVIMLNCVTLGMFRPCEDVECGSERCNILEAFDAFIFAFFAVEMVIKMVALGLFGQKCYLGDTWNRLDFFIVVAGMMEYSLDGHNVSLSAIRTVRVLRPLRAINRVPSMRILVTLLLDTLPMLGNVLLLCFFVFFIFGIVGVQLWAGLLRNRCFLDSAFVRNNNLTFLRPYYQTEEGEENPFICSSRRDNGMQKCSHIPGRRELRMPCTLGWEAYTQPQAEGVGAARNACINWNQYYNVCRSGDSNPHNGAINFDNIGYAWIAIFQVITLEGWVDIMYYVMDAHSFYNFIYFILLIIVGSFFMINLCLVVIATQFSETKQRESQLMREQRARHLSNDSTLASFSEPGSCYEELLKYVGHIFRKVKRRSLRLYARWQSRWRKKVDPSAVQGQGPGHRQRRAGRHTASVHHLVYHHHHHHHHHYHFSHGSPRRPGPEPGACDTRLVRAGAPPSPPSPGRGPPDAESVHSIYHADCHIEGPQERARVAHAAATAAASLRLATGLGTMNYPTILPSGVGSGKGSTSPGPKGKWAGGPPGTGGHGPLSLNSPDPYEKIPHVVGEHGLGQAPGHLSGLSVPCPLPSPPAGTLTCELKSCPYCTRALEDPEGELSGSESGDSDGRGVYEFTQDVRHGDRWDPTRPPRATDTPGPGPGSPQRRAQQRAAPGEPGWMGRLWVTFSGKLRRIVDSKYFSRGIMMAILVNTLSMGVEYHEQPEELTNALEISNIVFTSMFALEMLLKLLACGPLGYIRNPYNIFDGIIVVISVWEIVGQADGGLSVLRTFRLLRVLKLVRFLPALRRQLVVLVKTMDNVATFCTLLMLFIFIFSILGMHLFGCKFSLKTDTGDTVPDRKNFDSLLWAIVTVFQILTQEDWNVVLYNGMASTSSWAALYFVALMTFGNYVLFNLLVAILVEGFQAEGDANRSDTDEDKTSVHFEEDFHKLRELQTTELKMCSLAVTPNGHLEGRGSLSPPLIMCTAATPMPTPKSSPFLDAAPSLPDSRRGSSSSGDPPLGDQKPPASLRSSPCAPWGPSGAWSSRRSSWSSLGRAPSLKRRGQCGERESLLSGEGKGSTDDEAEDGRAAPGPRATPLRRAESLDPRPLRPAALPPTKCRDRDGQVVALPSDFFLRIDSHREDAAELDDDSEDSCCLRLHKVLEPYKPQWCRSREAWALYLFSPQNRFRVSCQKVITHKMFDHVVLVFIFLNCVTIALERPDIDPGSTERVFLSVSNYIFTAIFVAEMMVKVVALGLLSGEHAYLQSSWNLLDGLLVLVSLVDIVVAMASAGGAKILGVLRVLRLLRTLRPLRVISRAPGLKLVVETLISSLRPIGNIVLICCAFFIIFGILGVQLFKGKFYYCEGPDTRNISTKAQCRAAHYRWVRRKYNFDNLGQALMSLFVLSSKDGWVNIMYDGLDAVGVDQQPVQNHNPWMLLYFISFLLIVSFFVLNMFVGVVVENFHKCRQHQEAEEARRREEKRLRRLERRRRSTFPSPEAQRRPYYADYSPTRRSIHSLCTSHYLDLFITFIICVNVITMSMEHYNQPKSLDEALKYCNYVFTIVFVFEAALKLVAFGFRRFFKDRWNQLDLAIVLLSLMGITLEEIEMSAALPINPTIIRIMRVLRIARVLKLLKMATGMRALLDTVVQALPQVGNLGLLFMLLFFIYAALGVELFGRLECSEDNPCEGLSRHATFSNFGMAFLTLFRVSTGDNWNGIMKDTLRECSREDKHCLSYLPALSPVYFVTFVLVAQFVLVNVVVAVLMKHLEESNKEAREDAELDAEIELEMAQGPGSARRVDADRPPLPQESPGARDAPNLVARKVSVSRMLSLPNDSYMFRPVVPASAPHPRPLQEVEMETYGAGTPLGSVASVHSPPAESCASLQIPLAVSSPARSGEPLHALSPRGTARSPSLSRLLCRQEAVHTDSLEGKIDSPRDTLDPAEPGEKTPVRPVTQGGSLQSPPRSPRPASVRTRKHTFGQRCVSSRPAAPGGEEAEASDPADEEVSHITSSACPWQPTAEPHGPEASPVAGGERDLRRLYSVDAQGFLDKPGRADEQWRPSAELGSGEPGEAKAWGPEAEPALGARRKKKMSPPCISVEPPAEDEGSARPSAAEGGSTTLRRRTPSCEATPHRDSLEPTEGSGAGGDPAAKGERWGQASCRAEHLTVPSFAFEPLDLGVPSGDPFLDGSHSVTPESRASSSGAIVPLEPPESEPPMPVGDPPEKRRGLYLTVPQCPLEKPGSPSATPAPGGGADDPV
Procedure: The human Cav3.2 channel expressing stable cell line prepared by the test method (1) of Example 36 was seeded in a 10-cm dish using a DMEM medium containing 10% FBS, followed by culturing 37° C. for 24 hours under a 5% CO2 condition. The cells were detached using Accutase, and suspended in ice-cooled extracellular fluid for use. A Cav3.2 channel current was measured using an automated patch clamp system (Port-a-Patch; Nanion Technologies, EPC-10; HEKA Elektronik GmbH, Patchmaster; HEKA Elektronik GmbH) and buffers shown below, by a whole-cell patch-clamp method. The measurement of the Cav3.2 channel current was performed at room temperature, a measurement condition was a holding potential of −80 mV, a depolarization potential was −20 mV, a depolarization time was 100 msec, and a depolarization frequency was 10 sec. The Cav3.2 channel current was a peak value of an inward current observed at the time of depolarization to −20 mV.
The test compound was obtained by diluting a DMSO solution 1000 times with extracellular fluid to prepare a solution having a target concentration. The test compound was applied using an external perfusion system (Nanion Technologies) until the Cav3.2 channel current was stabilized, and a maximum of five concentrations from the low concentration side were cumulatively applied. An inhibition rate of the test compound was calculated from a change rate between a current value immediately before application of the test compound and the Cav3.2 channel current after application of the test compound (in a condition of holding potential of −80 mV, a concentration of the test compound was 0.3 μM, and in a condition of holding potential of −100 mV, a concentration of the test compound was 3 μM).
Extracellular fluid: 135 mM NaCl, 4 mM KCl, 1 mM MgCl2, 5 mM CaCl2, 5 mM D-Glucose, 10 mM HEPES, pH 7.4
Electrode internal fluid: 10 mM NaCl, 10 mM HEPES, 50 mM CsCl, 60 mM Cs-Fluoride, 20 mM EGTA, pH 7.2

[2] = test system: mouse partial sciatic nerve ligation (PSNL) model; assay: Mechanical allodynia in mouse partial sciatic nerve ligation (PSNL) model, von Frey filament test (Pharmacological Test 3); assay type: in vivo; conditions: 30 mg/kg orally administered
Procedure: A mouse PSNL model was prepared according to a method of Seltzer et al. A mouse was anesthetized by inhalation with isoflurane. A femoral region of the mouse was shaved and disinfected with isodine. Skin on a femur of the mouse was incised, fascia just below the skin was cut off, and muscle heads of musculus biceps femoris were divided. After confirmation of sciatic nerves just below the muscle, and the sciatic nerves were separated without damage. ½ to ⅓ of the sciatic nerve was penetrated by a needle with 8-0 silk and ligated. The skin was sutured and the mouse was reared for about 7 days. In surgery of a sham control mouse, only confirmation of the sciatic nerves was performed and then the skin was sutured.
A pain threshold was measured after moving the mice to a cage for measurement and waiting for the exploratory behavior to disappear. Regarding the pain threshold (paw withdrawal filament ((g)), soles of the mice were stimulated with von Frey filaments (Sttoelting Co.: TOUCH-TEST SENSORY EVLUATOR) having different stimulation intensities, and the presence or absence of avoidance response was observed. A 50% threshold was calculated by an up down method with reference to a method of Chaplan et al. (Quantitative assessment of tactile allodynia in the rat paw. J neurosci Methods, 53, 1994, 55 to 63). […]

human Cav3.2 channel [3] = molecular target: T1, human Cav3.2 channel; assay: Intracellular calcium concentration measurement in human Cav3.2 channel expressing stable cell line (Pharmacological Test 1); assay type: cell-based; conditions: HEK293 cells stably expressing human Cav3.2, Fluo-4 AM fluorescence, KCl stimulation; read-out: Cav3.2 channel inhibitory action
In short: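 HEK293 cells stably expressing human Cav3.2 were loaded with Fluo-4 AM for 45 min, then preincubated 15 min at room temperature with compound (0.1% DMSO) in B buffer (K+ equilibrium potential −92 mV). After ionophore addition, cells were depolarized with 83.8 mM KCl and calcium influx was read for 10 s (ex 485/em 510 nm). IC50 was fitted from maximal fluorescence increase over baseline.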

SMILES	inhibition at 0.3 µM (human Cav3.2 channel [1]) [%]	inhibition at 3 µM (human Cav3.2 channel [1]; 3 μM test compound, holding potential −100 mV, read-out: Cav3.2 channel current inhibition rate in test compound of 3 μM (holding potential of −100 mV) (%)) [%]	mechanical allodynia (pain threshold, von Frey filament test) compared to the vehicle group [2]	IC50 (human Cav3.2 channel [3]) [nM]
CC(NC(=O)C1CC1c1nc2ccccc2[nH]1)C(=O)Nc1ccc(C(F)(F)F)nc1 (single isomer, unassigned) [Example 5A, Trans-2-(1H-benzo[d]imidazol-2-yl)-N-(1-oxo-1-((6-(trifluoromethyl)pyridin-3-yl)amino)propan-2-yl) cyclopropane-1-carboxamide]	74	32	statistically significantly suppressed	100 to 1000
O=C(NC1(C(=O)Nc2ccc(C(F)(F)F)cc2)CC1)[C@H]1C[C@@H]1c1nc2ccccc2[nH]1 [Example 26, 1-((1S, 2S)-2-(1H-Benzo[d]imidazol-2-yl)cyclopropane-1-carboxamido)-N-(4-(trifluoromethyl)phenyl) cyclopropane-1-carboxamide]	84		statistically significantly suppressed	≤ 100
